Reference: patent publication US7507547B2, “Screening assays for antioxidants and antiproliferative compounds” (University of Massachusetts, priority 2004, dated 2009)
Values belong to the molecule of their own block, whether it stands above or below them. Square brackets hold non-standard residues; d marks the D form. Peptide text beside a SMILES is read from it. * marks the point of attachment. pGlu = O=C1CC[C@@H](C(=O)O)N1; X1 = O=C(Cc1ccc(O)c(I)c1)*; Nle = CCCC[C@H](N)C(=O)O

Columns and labels:
[1] = design: key: +: All of the compounds listed in Table 12 were anticancerous; conditions: from anticancer literature; cited from earlier work
[2] = target: T1, NTR1 (Homo sapiens, UniProt P30989); experiment: ^125I-NT binding to PC3 cell membranes; conditions: 22° C., 60 minutes
T1 construct: endogenous in cells; host or cells: PC3 cells (ATCC)
T1 sequence (P30989 whole entry): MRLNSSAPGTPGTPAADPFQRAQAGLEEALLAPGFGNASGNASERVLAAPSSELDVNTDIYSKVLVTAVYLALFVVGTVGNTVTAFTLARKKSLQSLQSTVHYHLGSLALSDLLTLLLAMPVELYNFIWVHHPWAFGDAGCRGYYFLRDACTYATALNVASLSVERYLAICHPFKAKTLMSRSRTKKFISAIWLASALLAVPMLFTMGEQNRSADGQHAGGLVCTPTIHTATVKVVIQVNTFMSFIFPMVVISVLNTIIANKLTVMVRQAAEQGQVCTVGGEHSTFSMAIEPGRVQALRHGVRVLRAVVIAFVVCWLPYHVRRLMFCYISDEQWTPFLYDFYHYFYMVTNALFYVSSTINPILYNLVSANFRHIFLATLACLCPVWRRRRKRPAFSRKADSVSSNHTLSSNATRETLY

[3] = target: T2, vasopressin (V1a) receptor (Homo sapiens, UniProt P37288); experiment: ^125I-HOLVA binding to PC3 cells
T2 construct: endogenous in cells; host or cells: PC3 cells (ATCC)
T2 sequence (P37288 whole entry): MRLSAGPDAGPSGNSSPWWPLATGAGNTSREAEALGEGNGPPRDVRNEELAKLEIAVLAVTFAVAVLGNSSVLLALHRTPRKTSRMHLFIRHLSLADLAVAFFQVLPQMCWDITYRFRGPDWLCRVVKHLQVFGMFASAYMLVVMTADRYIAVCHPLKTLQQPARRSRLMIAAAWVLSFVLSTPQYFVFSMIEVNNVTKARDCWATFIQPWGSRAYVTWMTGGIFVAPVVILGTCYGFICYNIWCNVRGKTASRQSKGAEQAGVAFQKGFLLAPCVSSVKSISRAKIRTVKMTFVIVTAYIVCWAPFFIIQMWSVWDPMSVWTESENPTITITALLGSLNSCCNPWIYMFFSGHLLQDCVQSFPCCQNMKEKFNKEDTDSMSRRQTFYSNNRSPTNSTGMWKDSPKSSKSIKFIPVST

[4] = target: T3, EGF receptor (Homo sapiens, UniProt P00533); experiment: ^125I-EGF binding to PC3 cells
T3 construct: endogenous in cells; host or cells: PC3 cells (ATCC)
T3 sequence (P00533 25-1210): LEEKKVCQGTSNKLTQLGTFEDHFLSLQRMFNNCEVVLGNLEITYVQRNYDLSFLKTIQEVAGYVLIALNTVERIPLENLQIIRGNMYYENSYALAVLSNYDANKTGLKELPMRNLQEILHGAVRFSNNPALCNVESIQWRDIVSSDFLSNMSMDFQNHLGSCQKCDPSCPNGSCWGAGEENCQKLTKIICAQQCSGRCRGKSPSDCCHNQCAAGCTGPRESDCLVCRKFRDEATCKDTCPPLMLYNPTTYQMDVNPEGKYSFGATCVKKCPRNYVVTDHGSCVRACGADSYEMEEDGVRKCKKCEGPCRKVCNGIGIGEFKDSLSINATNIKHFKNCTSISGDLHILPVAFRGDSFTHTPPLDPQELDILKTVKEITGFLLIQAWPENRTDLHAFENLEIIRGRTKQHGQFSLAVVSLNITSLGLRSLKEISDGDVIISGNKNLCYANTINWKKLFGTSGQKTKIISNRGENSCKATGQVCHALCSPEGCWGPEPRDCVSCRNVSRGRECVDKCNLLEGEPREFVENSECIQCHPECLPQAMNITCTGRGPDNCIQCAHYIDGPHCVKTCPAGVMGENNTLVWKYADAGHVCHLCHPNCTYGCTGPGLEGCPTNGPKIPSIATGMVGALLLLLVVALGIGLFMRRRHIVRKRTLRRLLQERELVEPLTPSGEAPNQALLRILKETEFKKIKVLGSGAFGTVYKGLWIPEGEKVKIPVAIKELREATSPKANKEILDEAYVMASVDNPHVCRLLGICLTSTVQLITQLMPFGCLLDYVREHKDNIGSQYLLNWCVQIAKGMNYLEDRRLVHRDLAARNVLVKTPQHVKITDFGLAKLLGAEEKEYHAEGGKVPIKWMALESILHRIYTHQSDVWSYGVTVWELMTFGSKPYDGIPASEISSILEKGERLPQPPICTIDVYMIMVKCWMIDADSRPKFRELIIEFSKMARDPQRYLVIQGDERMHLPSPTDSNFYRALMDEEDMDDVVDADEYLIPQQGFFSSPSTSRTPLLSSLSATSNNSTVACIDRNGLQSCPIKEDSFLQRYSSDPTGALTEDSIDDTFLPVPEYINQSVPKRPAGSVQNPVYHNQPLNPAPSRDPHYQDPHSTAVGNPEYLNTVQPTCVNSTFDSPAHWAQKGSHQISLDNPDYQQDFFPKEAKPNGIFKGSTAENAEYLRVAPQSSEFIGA

[5] = target: T1, NTR1; experiment: ^125I-NT binding to PC3 cells; conditions: for NT Binding Assay: ability to enhance NT binding in PC3 cells; for Efficacy for altering NT binding to NTR: flavonoids
[6] = system: 5-LOX; conditions: range of reported values, various blood cell systems; cited from earlier work
[7] = target: T4, β2-adrenergic receptor (Homo sapiens, UniProt P07550); experiment: ^125I-pindolol binding to PC3 cells
T4 construct: endogenous in cells; host or cells: PC3 cells (ATCC)
T4 sequence (P07550 whole entry): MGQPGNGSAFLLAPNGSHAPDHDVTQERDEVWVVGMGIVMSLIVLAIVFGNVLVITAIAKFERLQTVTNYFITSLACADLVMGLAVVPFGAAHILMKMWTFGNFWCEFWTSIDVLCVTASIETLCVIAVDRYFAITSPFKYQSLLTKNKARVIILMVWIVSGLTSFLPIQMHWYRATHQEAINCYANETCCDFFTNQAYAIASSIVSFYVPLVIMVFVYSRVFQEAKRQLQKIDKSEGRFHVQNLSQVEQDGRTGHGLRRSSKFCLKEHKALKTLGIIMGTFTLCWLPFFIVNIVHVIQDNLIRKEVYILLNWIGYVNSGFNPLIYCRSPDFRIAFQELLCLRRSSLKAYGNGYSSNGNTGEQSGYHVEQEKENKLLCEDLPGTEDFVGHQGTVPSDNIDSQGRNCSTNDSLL

[8] = target: T5, bombesin receptor (Homo sapiens, UniProt P30550); experiment: ^125I-[Nle14]-bombesin binding to PC3 cells
T5 construct: endogenous in cells; host or cells: PC3 cells (ATCC)
T5 sequence (P30550 whole entry): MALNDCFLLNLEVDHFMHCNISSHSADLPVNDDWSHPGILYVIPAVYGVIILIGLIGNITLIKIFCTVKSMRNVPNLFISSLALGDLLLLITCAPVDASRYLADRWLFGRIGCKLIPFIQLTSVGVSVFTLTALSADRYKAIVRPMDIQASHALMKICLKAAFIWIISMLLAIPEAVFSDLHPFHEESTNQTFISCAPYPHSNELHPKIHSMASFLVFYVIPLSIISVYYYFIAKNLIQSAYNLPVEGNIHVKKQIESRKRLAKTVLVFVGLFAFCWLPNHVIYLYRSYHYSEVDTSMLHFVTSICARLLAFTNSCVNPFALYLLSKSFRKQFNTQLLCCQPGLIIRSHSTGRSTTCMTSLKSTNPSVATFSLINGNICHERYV

[9] = target: T2, vasopressin (V1a) receptor; experiment: ^125I-HOLVA binding to PC3 cell membranes; conditions: 60 μM agent
[10] = target: T4, β2-adrenergic receptor; experiment: ^125I-pindolol binding to PC3 cell membranes; conditions: 60 μM agent
[11] = system: NT-induced inositol phosphate (IP) formation in PC3 cells; experiment: NT-induced IP formation in PC3 cells; format: cell-based; conditions: for IC50: Homo sapiens, PC-3
[12] = system: ERK; experiment: NT-induced ERK activation in PC3 cells (western blot); format: cell-based; conditions: for IC50: Homo sapiens, PC-3, 0.05 h, 3 minutes, 10 nM NT
Method: Anticancer activity was assessed using methods from Hassan et al., Regul. […] Western blotting was used to assess activation of growth pathways. In particular we measured the activation of a MAP-kinase called ERK using antibodies specific for the phosphorylated form. Serum was withdrawn for 24 hours from 80% confluent PC3 cells in 60 mm dishes. Cells were washed in Locke, then exposed for 3 minutes to 10 nM NT as stimulus. Reactions were stopped on ice, and cells were washed in buffer containing phosphatase and protease inhibitors. Cells were extracted into 2×SDS buffer, and proteins were separated by SDS-PAGE using 10% minigels. Proteins were electroeluted onto PVDF, and blots were blocked in non-fat dry milk in TTBS buffer. Blots were incubated with the primary antibody in blocking buffer for 18 hours at 4° C., washed in TTBS, then incubated with horseradish peroxidase-linked secondary antibody for 1 hour at 20° C. Enhanced chemoluminescence was performed according to manufacturer (Santa Cruz) and autoradiographs were scanned for computerized densitometric analysis. The results for the phospho-ERK were normalized by stripping the blots and reprobing with antibodies that measured the total ERK concentration.

[13] = system: PC3 cells; experiment: NT-induced proliferation of PC3 cells (^3H-thymidine); format: cell-based; conditions: for IC50: Homo sapiens, PC-3, 24 hours, 10 nM NT, read-out: IC50 for inhibition of NT-induced proliferation
[14] = system: melanoma cell growth; conditions: Casagrande and Darbon, 2001; cited from earlier work
[15] = system: protein kinase C; conditions: Ferriola et al., 1989; cited from earlier work
[16] = system: cancers from skin, pancreas, liver and breast; conditions: Huang et al., 1999; cited from earlier work
[17] = 10^5 cpm ^125I-ligand, PC3 cells

Molecule: COc1ccc(CCN(C)CCCC(C#N)(c2ccc(OC)c(OC)c2)C(C)C)cc1OC (stereo not drawn) [Verapamil, verapamil]
Binding (% control ± SEM) [10]: 9 ± 2 % control
Binding (% control ± SEM) [9]: 91 ± 5 % control
% crossreaction (direct competition with ^125I-pindolol) [7]: ~0.0005%

Molecule: CCOc1ccc(C[C@@H](NC(=O)Cc2ccc(O)c(I)c2)C(=O)N[C@@H](Cc2ccccc2)C(=O)N[C@@H](CCC(N)=O)C(=O)N[C@@H](CC(N)=O)C(=O)N[C@@H](CCCCN)C(=O)N2CCC[C@H]2C(=O)N[C@@H](CCCNC(=N)N)C(N)=O)cc1 [^125I-HOLVA, des-Gly-[Phaal, D-Tyr(Et)2, Lys6, Arg8]-vasopressin] (X1-[dY](Et)FQNKPR-NH2; N-terminus and C-terminus assumed)
Specific Binding (% of total) [3, 17]: 77 % of total
Bmax ([3]; Scatchard analysis): 156 ± 12 fmol/mg

Molecule: CCCC[C@H](NC(=O)[C@H](CC(C)C)NC(=O)[C@H](Cc1c[nH]cn1)NC(=O)CNC(=O)[C@@H](NC(=O)[C@H](C)NC(=O)[C@H](Cc1c[nH]c2ccccc12)NC(=O)[C@H](CCC(N)=O)NC(=O)[C@H](CC(N)=O)NC(=O)CNC(=O)[C@H](Cc1ccc(O)cc1)NC(=O)[C@H](CCCNC(=N)N)NC(=O)[C@H](CCC(N)=O)NC(=O)[C@@H]1CCC(=O)N1)C(C)C)C(N)=O [^125I-[Nle^14]-bombesin] ([pGlu]QRYGNQWAVGHL[Nle]-NH2; C-terminus assumed)
Specific Binding (% of total) [8, 17]: 95 % of total
Bmax ([8]; Scatchard analysis): 1016 ± 64 fmol/mg

Molecule: C(=Cc1ccccc1)c1ccccc1 [stilbene]
Effect on NT-induced ERK activation [12]: inactive
Effect on NT-induced cell proliferation [13]: inactive

Molecule: catechin
Efficacy to inhibit melanoma cell growth [14]: inactive
Efficacy for altering NT binding to NTR [5]: inactive
Efficacy to inhibit protein kinase C [15]: inactive
Efficacy to inhibit growth of cancers from skin, pancreas, liver and breast [16]: inactive

Continued, in another order:

Specific NT-Binding (% control) ([2]; 10 μM agent): 99 ± 3 % control
Specific NT-Binding (% control) ([2]; 25 μM agent): 107 ± 4 % control
Specific NT-Binding (% control) ([2]; 75 μM agent): 97 ± 4 % control
Specific Binding (% control) ([3]; 12 μM agent): 93 ± 5 % control
Specific Binding (% control) ([3]; 60 μM agent): 67 ± 3 % control
Specific Binding (% control) ([4]; 12 μM agent): 141 ± 7 % control
Specific Binding (% control) ([4]; 60 μM agent): 165 ± 11 % control
Increase in EGF binding ([4]; PC3 cells): 65%
NT Binding Efficacy % increase ([5]; LOX blockers): 210 % increase
EC50 ([5]; [agent] giving 100% increase in NT binding): 18 µM
NT Binding Assay [5]: +
Specific Binding (% control) ([7]; 12 μM agent): 105 ± 3 % control
Specific Binding (% control) ([7]; 60 μM agent): 102 ± 6 ^ % control
Specific Binding (% control) ([8]; 12 μM agent): 106 ± 5 % control
Specific Binding (% control) ([8]; 60 μM agent): 125 ± 7 % control
Molecule: CC(C)c1ccc2c(c1)c(SC(C)(C)C)c(CC(C)(C)C(=O)O)n2Cc1ccc(Cl)cc1 [MK886]
Anti-cancer [1]: +
IC50 [6]: 0.1 to 1 µM

Binding (% control ± SEM) [9]: 90 ± 3 % control
Molecule: COC(=O)C1=C(C)NC(C)=C(C(=O)OC)C1c1ccccc1[N+](=O)[O-] [NIF, nifedipine]

Binding (% control ± SEM) [10]: 18 ± 5 % control
Binding (% control ± SEM) [9]: 110 ± 3 % control
EC50 ([5]; [agent] at which NT binding was increased by 80%): 23 µM
NT Binding Efficacy % increase ([5]; maximal % increase in NT binding observed for each agent): 155 % increase
IC50 ([11]; [agent] at which IP formation was decreased by 50%): 26 µM
% crossreaction (direct competition with ^125I-pindolol) [7]: ~0.0005%
Molecule: COc1ccc(CCCOC(Cn2ccnc2)c2ccc(OC)cc2)cc1 (stereo not drawn) [SKF-96365]
IP Formation Efficacy (% decrease) ([11]; maximal % decrease in NT-induced IP formation): 69 % decrease

IC50 [12]: 25 µM
IC50 [13]: 0.5 µM
NT Binding Assay [5]: +
Molecule: O=c1c(O)c(-c2ccc(O)c(O)c2)oc2cc(O)cc(O)c12 [quercetin]
Anti-cancer [1]: +

IC50 [12]: 50 µM
IC50 [13]: 3 µM
IC50 ([11]; [agent] giving 50% decrease in IP formation): 48 µM
Molecule: Oc1ccc(C=Cc2cc(O)cc(O)c2)cc1 [resveratrol]

Efficacy for altering NT binding to NTR [5]: inactive
Molecule: O=C1c2c(O)cc(O)cc2O[C@H](c2ccc(O)c(O)c2)[C@H]1O [taxifolin]
Efficacy to inhibit melanoma cell growth [14]: inactive
Effect on NT-induced ERK activation [12]: inactive
Effect on NT-induced cell proliferation [13]: inactive
Efficacy to inhibit protein kinase C [15]: inactive
Efficacy to inhibit growth of cancers from skin, pancreas, liver and breast [16]: inactive
